Assay results as given in article PMC4552634, “A New Set of Chemical Starting Points with Plasmodium falciparum Transmission-Blocking Potential for Antimalarial Drug Discovery” (PLoS ONE, 2015).
Read-outs that look alike come from different tables or passages of the source.

How the values were obtained:
[1] = Cytotoxicity in HepG2 cells (intracellular ATP, ATPlite, 48 h); assay type: cell-based, human; conditions: human, HepG2 cells; IC50 per ratio column head; unit inferred; read-out: Cytotoxicity in HepG2
HepG2 cells = test: as above; assay type: cell-based, human; conditions: IC50 HepG2 divided by IC50 P. falciparum gametocytes
[2] = tested on: P. falciparum stage V gametocytes; test: Gametocytocidal ATP bioluminescence assay (single point 5 μM and 1 μM, dose-response); assay type: cell-based, Plasmodium falciparum; conditions: for IC50: Plasmodium falciparum
Method: Purified stage IV-V gametocytes were obtained as previously described [10]. Single point ATP bioluminescence assay and dose–response of positive hits was determined in accordance with the previously published protocol [10].

[3] = tested on: P. falciparum asexual stages; conditions: TCAMS data, cited from earlier work
[4] = tested on: luciferase reaction (BacTiter-Glo); test: Interference assay (inhibition of the BacTiter-Glo luciferase reaction); assay type: biochemical; design: concentration or dose not given beside the values; conditions: ATP interference assay
Method: To discard possible false-positive results, we performed an interference assay in parallel. […] […]. The ATP solution was made by dissolving ATP powder (ATP standard from the ATPlite 1 step assay kit, reference 6016731, Perkin Elmer) in culture medium. The positive control used was the Luciferase Inhibitor I Calbiochem (Merck, 119113) at 100 μM.

adenosine A3 receptor = tested on: adenosine A3 receptor; design: method as in TCAMS annotation; conditions: target annotation in TCAMS; ref TCAMS annotation; cited from earlier work
[5] = tested on: KCa2.2, a calcium-dependent K+ channel; design: method as in TCAMS annotation; conditions: target annotation in TCAMS; ref TCAMS annotation; cited from earlier work
[6] = tested on: P. falciparum stage V gametocytes; design: BacTiter-Glo ATP luminescence viability of purified stage V gametocytes in 384-well plates, per cent inhibition versus DMSO; conditions: 48 h, 5 µM; inhibitor
[7] = P. falciparum gametocytes, average, read-out: IC50 Pf Gametocytes average, IC50 (µM) average
[8] = sexual stages (gametocytes), dose-response, read-out: IC50 sexual
[9] = P. falciparum asexual stages, read-out: IC50 (µM) Pf asexual stages
[10] = asexual stages, read-out: IC50 asexual

Row | Structure (SMILES) | IC50 at 48 h [1] | Ratio IC50 HepG2/IC50 P. falciparum (HepG2 cells) | Ratio IC50 HepG2/IC50 P. falciparum ([2]; IC50 HepG2 divided by IC50 P. falciparum gametocytes) | IC50 [2, 7] | IC50 [2, 8] | IC50 [3, 9] | IC50 [3, 10] | % Control luminiscence [4] | reported as an adenosine A3 receptor ligand (adenosine A3 receptor) | reported as inhibitors of KCa2.2 [5] | IC50 ([2]; gametocytes (GC), value as repeated in the Clusters sheet, read-out: IC50 GC) | % Inhibition [6]
1 | O=C(Nc1nc(-c2ccccn2)cc2ccccc12)c1cccc(Cl)c1 [TCMDC-123886] | > 25 µM | >50 | >50 | 0.5 µM | 0.497 µM | 0.75 µM | 0.754 µM | 100% | ligand |  |  | 
2 | Cc1ccnc(Nc2nc(-c3ccccn3)cs2)c1 [TCMDC-125769] |  |  |  | 0.0433 µM | 0.043 µM | 1 µM | 0.998 µM |  |  | inhibitors | 0.04 µM | 
3 | Cc1ccccc1N1CCN(c2ccc(C(=O)NC3CC3)cn2)CC1 [TCMDC-134578] |  |  |  |  |  |  |  |  |  |  |  | 39.4%
4 | NC(=O)c1ccccc1Nc1nc(Nc2ccn[nH]2)ncc1Cl [TCMDC-134169] |  |  |  |  |  |  |  |  |  |  |  | -47.65%
5 | Clc1ccc(Nc2nc(-c3ccccn3)cs2)nc1 [TCMDC-123885] |  |  |  | 0.67 µM |  | 0.77 µM | 0.774 µM | 100% |  | inhibitors |  | 
